Measured values reported in patent EP3027627B1, “2-[5-[N-(4-FLUOROPHENYL)CARBAMOYL]PYRIMIDIN-2-YLSULFANYLMETHYL]-4-(TRIFLUOROMETHOXY)PHENYL]BORONIC ACID” (Syntrix Biosystems Inc., priority 2013, dated 2015).

Assays:
[1] = Stability in human liver microsomes (NADPH-dependent); assay type: in vitro ADME
Excerpt: Liver microsomes are an in vitro model for in vivo metabolism and elimination of a drug by the liver (and gut) cytochrome P450 system. A compound's stability in liver microsomes in vitro is predictive of its metabolism and elimination in vivo. We examined the stability of SX-682 in liver microsomes together with several other cogeners to quantify the microsomal stability of SX-682 and identify potential structure-activity relationships (SAR) predictive of stability or instability (see Figure 5).
The compounds were incubated in duplicate with human liver microsomes at 37°C. The reaction contained microsomal protein in 100 mM potassium phosphate, 2 mM NADPH, 3 mM MgCl2, pH 7.4. A control was run for each compound omitting NADPH to detect NADPH-independent degradation. An aliquot was removed from each experimental and control reaction at 0, 10, 20, 30, and 60 minutes and mixed with an equal volume of ice-cold Stop Solution (0.3% acetic acid in acetonitrile containing haloperidol, diclofenac, or other internal standard). Stopped reactions were incubated for at least ten minutes at -20°C, and an additional volume of water was added. The samples were centrifuged to remove precipitated protein, and the supernatants were analyzed by LCMS/MS to quantitate the remaining compound. Data were converted to percent remaining by dividing by the time zero concentration value. Data were fit to a first-order decay model to determine half-life. Intrinsic clearance was calculated from the half-life and the protein concentrations: CLint = ln(2)/(t½ [microsomal protein]).

[2] = Stability in human plasma; assay type: in vitro ADME
Protocol: The in vitro stability of SX-682 and the cogeners of Metabolic Stability Example 1 (Figure 5) were further studied in human plasma. The reactions were initiated by the addition of 5 µL of a 500 µM DMSO stock solution to 495 µL of preheated plasma solution to yield a final concentration of 5 µM. The assays were performed in a heat block at 37°C and conducted in duplicate. Samples (50 µL) were taken at 0, 30, 60, 120, 240 min and added to 150 µL acetonitrile in order to deproteinize the plasma. The samples were subjected to vortex mixing for 1 min and then centrifugation for 15 min at 14,000 rpm. The clear supernatants were analyzed by LC-MS.
The in vitro plasma half life (t½) was calculated using the expression t½ = ln(2)/b, where b is the slope found in the linear fit of the natural logarithm of the fraction remaining of the parent compound vs. incubation time.

[3] = system: neutrophils; assay: Murine air-pouch model of inflammation; assay type: in vivo; conditions: depending on the dose given
[4] = system: neutrophils; assay: Ozone rat model of pulmonary inflammation (neutrophil influx into BALF); assay type: in vivo, Sprague-Dawley rats; conditions: for influx of neutrophils into the lungs (BALF) as compared to control rats treated with vehicle only: 1 mg/kg intravenously once at t = 0, 1 ppm ozone for 4 hours, BALF at t = 24 hours, n = 4 per cohort
Protocol: SX-682 was assayed in an in vivo rat model of pulmonary inflammation. Activity in this model of pulmonary inflammation provides evidence that supports the use of SX-682 in the treatment of a number of pulmonary inflammatory diseases, including chronic obstructive pulmonary disease (COPD) and bronchopulmonary dysplasia (BPD). In this experiment, Sprague-Dawley rats (n = 4 per cohort) were dosed intravenously only once at t = 0 with either vehicle control (dimethylformamide/PEG400/saline, 40:40:20), positive inhibitor control (SX-576, 1 mg/kg) or the test compound (SX-682, 1 mg/kg). The rats were then placed in air (negative exposure group; vehicle control only) or 1 ppm ozone (positive exposure group; vehicle control, positive inhibitor control SX-576, and test compound SX-682) for 4 hours. The rats were then sacrificed at t = 24 hours, and the bronchoalveolar lavage fluid (BALF) was collected. The cells were spun down, stained with Wright-Giemsa and counted. In the negative exposure group, no neutrophils were observed when stained. In the ozone exposed rats treated with vehicle however, there was a brisk influx of neutrophils of approximately 14,000 per mL of BALF (see Figure 4).

[5] = biological target: T1, CXCR1 (Homo sapiens, UniProt P25024); assay: Inhibition of CXCL8-mediated intracellular calcium release, RBL cells stably transfected with CXCR1; assay type: cell-based; conditions: CXCL8 25 nM, mean ± SE, n = 4
T1 construct: expressed in transfected cells; host or cells: RBL cells (stably transfected)
T1 sequence (P25024 1-350): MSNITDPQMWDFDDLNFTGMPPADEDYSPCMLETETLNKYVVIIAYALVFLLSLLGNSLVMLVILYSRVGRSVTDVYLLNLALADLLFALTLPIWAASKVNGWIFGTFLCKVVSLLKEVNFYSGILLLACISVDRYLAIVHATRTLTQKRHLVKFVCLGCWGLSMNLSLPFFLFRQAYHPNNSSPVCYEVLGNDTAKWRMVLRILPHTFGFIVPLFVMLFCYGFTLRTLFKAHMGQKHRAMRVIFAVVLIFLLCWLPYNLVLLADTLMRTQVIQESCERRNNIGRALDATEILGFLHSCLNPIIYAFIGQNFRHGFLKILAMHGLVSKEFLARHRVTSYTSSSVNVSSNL
Protocol: (§1) Briefly, cells (either isolated human neutrophils or RBL cells stably transfected with either CXCR1 or CXCR2) were suspended in HBSS^- (without Ca^2+ and Mg^2+) containing 10 mM HEPES and FLIPR Calcium 3 dye (3.1 x 10^7 cells in total volume 1.7 mL). Cells were aliquoted (200 µL of the cell suspension per tube, 8 tubes total) and 2 µL of the designated compound (with appropriate dilutions) were added to each of 6 tubes. As controls, 2 µL of DMSO (1% final concentration) were added to 2 other tubes. Cells were incubated for 30 min at 37 °C. After dye loading, tubes were centrifuged at 6,000 rpm for 1 min, supernatant was removed and the cell pellet was re-suspended in 200 µL of HBSS^+ (with Ca^2+ and Mg^2+) containing 10 mM HEPES. […] The cell suspension was aliquoted into a 96-well Reading Plate (Coming) in a volume of 90 µL (10^5 cells/well). […] After 15 sec of reading the basal level of fluorescence by FlexStation II, 10 µL of CXCL8 or HBSS^-were automatically transferred from the Compound Plate into the Reading Plate (final concentration of CXCL8 was 25 nM). Changes in fluorescence were monitored (λex = 485 nm, λem = 525 nm) every 5 s for 240 to 500 s at room temperature.
(§2) The maximum change in fluorescence, expressed in arbitrary units over baseline (Max-Min), was used to determine the CXCL8 response. […]

[6] = biological target: T2, CXCR2 (Homo sapiens, UniProt P25025); assay: Wash-resistant inhibition of CXCL8-mediated calcium flux after inhibitor washout, CXCR2 RBL cells; assay type: cell-based; conditions: RBL cells stably transfected with CXCR2; 30 minutes incubation at 37°C with 0.4, 2, 10 µM, then washout; time points up to 12 h
T2 construct: expressed in transfected cells; host or cells: RBL cells (stably transfected)
T2 sequence (P25025 1-360): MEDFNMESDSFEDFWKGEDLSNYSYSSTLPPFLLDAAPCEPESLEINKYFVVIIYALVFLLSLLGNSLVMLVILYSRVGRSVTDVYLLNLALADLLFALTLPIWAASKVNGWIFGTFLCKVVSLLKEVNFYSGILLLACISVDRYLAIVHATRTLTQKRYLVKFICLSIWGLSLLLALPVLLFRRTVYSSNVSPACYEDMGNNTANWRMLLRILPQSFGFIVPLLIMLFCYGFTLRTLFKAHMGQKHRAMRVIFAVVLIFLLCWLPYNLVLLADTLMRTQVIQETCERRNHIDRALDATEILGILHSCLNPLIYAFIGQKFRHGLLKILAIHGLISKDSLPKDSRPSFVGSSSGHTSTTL
Protocol: (§3) SX-682 contains a boronic acid moiety that has the potential to form a transient covalent linkage with hydroxyl-bearing amino acid side chains in the binding site of its protein target.
(§4) In order to test this hypothesis, RBL cells (10^7 cells/mL) stably transfected with either CXCR1 or CXCR2 were (1) incubated with SX-682 at various concentrations for 30 minutes at 37°C, (2) washed and resuspended in assay buffer (RPMI/2% serum) at room temperature, and (3) assayed for CXCL8-mediated calcium response at time points up to 12 h after inhibitor washout. The concentrations of SX-682 tested were 0 (positive control), 0 (negative control), 0.4, 2, and 10 µM. At 30 minutes before each time point, a 56.25 µL aliquot of the cells were removed and loaded for 30 minutes at room temperature in the dark with FLIPR-3 reagent (262.5 µl per tube). Following FLIPR-3 incubation, cells were assayed for CXCL8 mediated intracellular calcium release as described in Pharmacology Example 1.

[7] = system: isolated human neutrophils; assay: Inhibition of CXCL8-mediated intracellular calcium release, isolated human neutrophils; assay type: cell-based; conditions: Neutrophil; human neutrophils (Human PMNs); CXCL8 25 nM; mean ± SE, n = 4
Protocol: as §1, §2

[8] = biological target: T2, CXCR2; assay: Inhibition of CXCL8-mediated intracellular calcium release, RBL cells stably transfected with CXCR2; assay type: cell-based; conditions: CXCL8 25 nM, mean ± SE, n = 4
Protocol: as §1, §2

[9] = biological target: T1, CXCR1; assay: Wash-resistant inhibition of CXCL8-mediated calcium flux after inhibitor washout, CXCR1 RBL cells; assay type: cell-based; conditions: RBL cells stably transfected with CXCR1; 30 minutes incubation at 37°C with 0.4, 2, 10 µM, then washout; time points up to 12 h
Protocol: as §3, §4

[10] = 37°C, 2 mM NADPH, pH 7.4, first-order decay model
[11] = 5 µM, incubation at 37°C, LC-MS/MS detection

Row | t½ (Half-life) [1, 10] [h] | t½ [2, 11] [h] | fold reduction in plasma half-life ([2]; structural comparison with sulfur / F3CO-bearing cogeners) [fold] | IC50 [5] [nM] | fold larger half life than SX-671 or SX-576 [1] [fold] | half-life ([1]; 37°C, 2 mM NADPH, pH 7.4, first-order decay model, read-out: t½ (Half-life)) [h] | half-life at 5 µM ([2]; 5 µM, incubation at 37°C, LC-MS/MS detection, read-out: t½) [h] | inhibition of CXCL8-mediated intracellular calcium flux sustained after washout [6] | IC50 [7] [nM] | IC50 [8] [nM] | inhibition of CXCL8-mediated intracellular calcium flux sustained after washout [9] | Structure (SMILES) | activity on neutrophils in vivo [3] | influx of neutrophils into the lungs (BALF) as compared to control rats treated with vehicle only [4] | inhibition of neutrophil chemotaxis, comparison of the two inhibitors tested ([4]; SX-682 vs SX-576, each 1 mg/kg intravenously, ozone exposed rats) | inhibition of neutrophil influx into the BALF sustained after a single dose ([4]; single dose of 1 mg/kg intravenously, ozone exposed rats) [h]
1 | 0.833 | 8.88 | – | – | – | – | – | – | – | – | – | O=C(Nc1ccc(F)cc1)c1ccc(SCc2cc(OC(F)(F)F)ccc2B(O)O)nc1 [SX-576, reference compound] | both inhibitory and agonist activity on neutrophils were achieved | significantly decreased the influx of neutrophils | – | –
2 | 6.75 | 1.88 | 5 | – | – | – | – | – | – | – | – | O=C(Nc1ccc(F)cc1)c1ccc(SCc2ccccc2B(O)O)nc1 [SX-517] | both inhibitory and agonist activity on neutrophils were achieved | – | – | –
3 | – | – | – | 42 ± 3 | 6 | 5.42 | 11.6 | at least 12 hours | 55 ± 6 | 20 ± 2 | at least 12 hours | O=C(Nc1ccc(F)cc1)c1cnc(SCc2cc(OC(F)(F)F)ccc2B(O)O)nc1 [SX-682, 2-(2-Boronic acid-5-trifluoromethoxy-benzylsulfanyl)-pyrimidine-5-carboxylic acid (4-fluoro-phenyl)-amide] | – | significantly decreased the influx of neutrophils | markedly more robust inhibition of neutrophil chemotaxis | 24
